Test results: PubChem BioAssay AID1963844 (Molecular Pharmacology Branch, DTP, NCI, 2024)

Tested on: 422866-222-R5-J1-PDC complex spheroid viability
Assay: Anticancer human tumor 422866-222-R5-J1-PDC patient-derived pancreatic adenocarcinoma cell line growth inhibition [POLQ]
Settings: for IC50: curve of first compound; for viability, T/C: stronger effect = lower value
Description: Multicellular complex tumor spheroid response to Polymerase (POL) inhibitors (novobiocin, ART-558, RP6685) in combination with a variety of drugs and investigational agents in selected tumor cell lines
The POL inhibitors (novobiocin, ART-558, and RP6685) were evaluated both individually and in combination with standard of care and investigational anticancer small molecules within a complex spheroid model of solid tumors. . Complex spheroids include a stromal component modeled by human endothelial cells (HUVEC) and fibroblasts modeled by human mesenchymal stem cells (MSCs). The concentration ranges selected for each drug and investigational agent were based upon clinically achievable concentrations if the clinical Cmax of the agent was known.
Compounds. The drugs and investigational agents: novobiocin (NSC847541), ART-558 (NSC835418), RP-6685 (NSC848927), peposertib (NSC802822), ceralasertib (NSC780249), elimusertib (NSC800525), camonsertib (NSC841442), AZD-1390 (NSC803789), olaparib (NSC753686), talazoparib (NSC767125), rucaparib (NSC756644), sotorasib (NSC818433), MRTX-1133 (NSC836407), SN-38 (NSC673596), topotecan (NSC609699), epotoside (NSC141540), doxorubicin (NSC123127), gemcitabine (NSC613327), 5-fluorouracil (NSC19893), paclitaxel (NSC125973), vemurafenib (NSC761431), MSA-2 (NSC828583), SN-011 (NSC837082), adavosertib (NSC754352), prexasertib (NSC758257), carboplatin (NSC241240) and oxaliplatin (NSC266046), were obtained from the National Cancer Institute (NCI) Developmental Therapeutics Program Chemical Repository (21). The FDA-approved anticancer drug set is available from the Developmental Therapeutics Program at https://dtp.cancer.gov/organization/dscb/obtaining/. […] The stock solutions were prepared in dimethyl sulfoxide (DMSO, Sigma-Aldrich, St. Louis, MO, cat. D2650), except for the platinum compounds which were prepared in saline (Quality Biological, Gaithersburg, MD, cat. 114-055-101), at 800-fold the tested concentration and stored at -70 degrees C prior to their use. All drugs and investigational agents were tested over a range starting from a high concentration at or near the clinical Cmax and decreasing in half-log increments. If the clinical Cmax for an agent had not been determined, the highest concentration tested was 10 microM, except for SN-38, which was tested at a high concentration of 1 microM.
Cell Culture. All cells were maintained in an incubator at 37 degrees C and 5% CO2 with 95% humidity. The PDC lines were cultured according to standard operating procedures established by the NCI PDMR (https://pdmr.cancer.gov). Table 3 of the manuscript, lists the cell lines along with the number of the three cell types plated to form the mct-spheroids and media for tumor cell growth. After thawing, all PDC lines, except 997537-175-T-J1-PDC and 415267-285-R-J2-PDC, were cultured in Matrigel-coated flasks prepared with a working solution of 1X Ham's F-12 nutrient mix, without supplementation (Thermo Fisher Scientific, cat. 11765054), 100 U/mL penicillin-streptomycin (Thermo Fisher Scientific, cat. 15140122), and 2.5% Matrigel (Corning Inc., Corning, NY, cat. 354248) for the first three passages. The two PDC lines 997537-175-T-J1-PDC and 415267-285-R-J2-PDC were cultured on uncoated flasks. The 857933-349-R-J2-PDC line was cultured in 6C/Colon 1B media containing advanced DMEM/F-12 (Thermo Fisher Scientific, cat. 12634028), 10 mM HEPES (Thermo Fisher Scientific, cat. 15630080), 1X GlutaMAX supplement (Thermo Fisher Scientific, cat. 35050061), 0.1 mg/mL primocin (InvivoGen, San Diego, CA, cat. ant-pm-2), 10% defined fetal bovine serum, heat inactivated (HyClone Laboratories Inc., Logan, UT, cat. SH30070.03HI), 50% L-WRN conditioned media (ATCC, cat. CRL-3276), 1.25 mM N-Acetyl-L-cysteine (Sigma-Aldrich, cat. A9165), 10 mM nicotinamide (Sigma-Aldrich, cat. N0636), 1X B-27 supplement (Thermo Fisher Scientific, cat. 17504044), 1X N-2 supplement (Thermo Fisher Scientific, cat. […]

[1] = second compound 0.0316 µM, first compound 0.00316 µM
[2] = second compound 0.0316 µM, first compound 0.01 µM
[3] = second compound 0.0316 µM, first compound 0.0316 µM
[4] = second compound 0.0316 µM, first compound 0.1 µM
[5] = second compound 0.1 µM, first compound 0.00316 µM
[6] = second compound 0.1 µM, first compound 0.01 µM
[7] = second compound 0.1 µM, first compound 0.0316 µM
[8] = second compound 0.1 µM, first compound 0.1 µM
[9] = second compound 0.316 µM, first compound 0.00316 µM
[10] = second compound 0.316 µM, first compound 0.01 µM
[11] = second compound 0.316 µM, first compound 0.0316 µM
[12] = second compound 0.316 µM, first compound 0.1 µM
[13] = second compound 1 µM, first compound 0.00316 µM
[14] = second compound 1 µM, first compound 0.01 µM
[15] = second compound 1 µM, first compound 0.0316 µM
[16] = second compound 1 µM, first compound 0.1 µM
[17] = second compound 3.16 µM, first compound 0.00316 µM
[18] = second compound 3.16 µM, first compound 0.01 µM
[19] = second compound 3.16 µM, first compound 0.0316 µM
[20] = second compound 3.16 µM, first compound 0.1 µM
[21] = second compound 10 µM, first compound 0.00316 µM
[22] = second compound 10 µM, first compound 0.01 µM
[23] = second compound 10 µM, first compound 0.0316 µM
[24] = second compound 10 µM, first compound 0.1 µM
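Note: spheroids exposed to compounds for one week before readout.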
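Throughout, for viability, T/C: percent of DMSO vehicle wells luminescence so 100% = untreated viability.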

Question: How did the IC50 (second compound 0.0316 µM) turn out when `COc1cccc(OCCCN)c1-c1cc(Nc2cnc(C#N)cn2)n[nH]1` + COC1C(OC(N)=O)C(O)C(Oc2ccc3c(O)c(NC(=O)c4ccc(O)c(CC=C(C)C)c4)c(=O)oc3c2C)OC1(C)C was run?
Answer: 4.59 nM

Question: And the IC50 (second compound 0.1 µM)?
Answer: 4.16 nM

Question: And the IC50 (second compound 0.316 µM)?
Answer: < 3.16 nM

Question: What about the IC50 (second compound 1 µM) of the same molecule?
Answer: < 3.16 nM

Question: What about the IC50 (second compound 3.16 µM) of the same molecule?
Answer: 5.14 nM

Question: And the IC50 (second compound 10 µM)?
Answer: < 3.16 nM

Question: And the viability, T/C [1]?
Answer: 55.9%

Question: And the viability, T/C [2]?
Answer: 37.4%

Question: What about the viability, T/C [3] of the same molecule?
Answer: 33.7%

Question: And the viability, T/C [4]?
Answer: 30.7%

Question: What about the viability, T/C (second compound 0.0316 µM, first compound 0.316 µM) of the same molecule?
Answer: 26.7%

Question: And the viability, T/C (second compound 0.0316 µM, first compound 1 µM)?
Answer: 34.3%

Question: And the viability, T/C [5]?
Answer: 53%

Question: What about the viability, T/C [6] of the same molecule?
Answer: 42.1%

Question: What about the viability, T/C [7] of the same molecule?
Answer: 32.3%

Question: And the viability, T/C [8]?
Answer: 29.5%

Question: What about the viability, T/C (second compound 0.1 µM, first compound 0.316 µM) of the same molecule?
Answer: 26.8%

Question: And the viability, T/C (second compound 0.1 µM, first compound 1 µM)?
Answer: 42.6%

Question: And the viability, T/C [9]?
Answer: 48.5%

Question: And the viability, T/C [10]?
Answer: 39.9%

Question: What about the viability, T/C [11] of the same molecule?
Answer: 28.5%

Question: What about the viability, T/C [12] of the same molecule?
Answer: 37.7%

Question: And the viability, T/C (second compound 0.316 µM, first compound 0.316 µM)?
Answer: 32.1%

Question: And the viability, T/C (second compound 0.316 µM, first compound 1 µM)?
Answer: 35.1%

Question: What about the viability, T/C [13] of the same molecule?
Answer: 55.9%

Question: And the viability, T/C [14]?
Answer: 39.3%

Question: What about the viability, T/C [15] of the same molecule?
Answer: 32.7%

Question: And the viability, T/C [16]?
Answer: 37.3%

Question: And the viability, T/C (second compound 1 µM, first compound 0.316 µM)?
Answer: 32.7%

Question: What about the viability, T/C (second compound 1 µM, first compound 1 µM) of the same molecule?
Answer: 47%

Question: And the viability, T/C [17]?
Answer: 54.7%

Question: What about the viability, T/C [18] of the same molecule?
Answer: 43%

Question: What about the viability, T/C [19] of the same molecule?
Answer: 41.4%

Question: And the viability, T/C [20]?
Answer: 30.1%

Question: What about the viability, T/C (second compound 3.16 µM, first compound 0.316 µM) of the same molecule?
Answer: 41.2%

Question: And the viability, T/C (second compound 3.16 µM, first compound 1 µM)?
Answer: 32.8%

Question: And the viability, T/C [21]?
Answer: 54.2%

Question: What about the viability, T/C [22] of the same molecule?
Answer: 38.7%

Question: What about the viability, T/C [23] of the same molecule?
Answer: 39.1%

Question: What about the viability, T/C [24] of the same molecule?
Answer: 38%

Question: What about the viability, T/C (second compound 10 µM, first compound 0.316 µM) of the same molecule?
Answer: 30.9%

Question: And the viability, T/C (second compound 10 µM, first compound 1 µM)?
Answer: 38.4%

Question: How did the IC50 (second compound 0.0316 µM) turn out when `Cn1ncnc1[C@H]1c2n[nH]c(=O)c3cc(F)cc(c23)N[C@@H]1c1ccc(F)cc1` + COC1C(OC(N)=O)C(O)C(Oc2ccc3c(O)c(NC(=O)c4ccc(O)c(CC=C(C)C)c4)c(=O)oc3c2C)OC1(C)C was run?
Answer: > 100 nM

Question: What about the IC50 (second compound 0.1 µM) of the same molecule?
Answer: > 100 nM

Question: What about the IC50 (second compound 0.316 µM) of the same molecule?
Answer: > 100 nM

Question: And the IC50 (second compound 1 µM)?
Answer: > 100 nM

Question: What about the IC50 (second compound 3.16 µM) of the same molecule?
Answer: > 100 nM

Question: And the IC50 (second compound 10 µM)?
Answer: > 100 nM

Question: What about the viability, T/C (second compound 0.0316 µM, first compound 0.000316 µM) of the same molecule?
Answer: 108%

Question: And the viability, T/C (second compound 0.0316 µM, first compound 0.001 µM)?
Answer: 100%

Question: And the viability, T/C [1]?
Answer: 90%

Question: And the viability, T/C [2]?
Answer: 88.6%

Question: And the viability, T/C [3]?
Answer: 86.6%

Question: And the viability, T/C [4]?
Answer: 83.1%

Question: And the viability, T/C (second compound 0.1 µM, first compound 0.000316 µM)?
Answer: 119%

Question: And the viability, T/C (second compound 0.1 µM, first compound 0.001 µM)?
Answer: 87.2%

Question: What about the viability, T/C [5] of the same molecule?
Answer: 104%

Question: What about the viability, T/C [6] of the same molecule?
Answer: 87%

Question: What about the viability, T/C [7] of the same molecule?
Answer: 88.5%

Question: What about the viability, T/C [8] of the same molecule?
Answer: 90.3%

Question: What about the viability, T/C (second compound 0.316 µM, first compound 0.000316 µM) of the same molecule?
Answer: 96.1%

Question: What about the viability, T/C (second compound 0.316 µM, first compound 0.001 µM) of the same molecule?
Answer: 104%

Question: What about the viability, T/C [9] of the same molecule?
Answer: 98.8%

Question: And the viability, T/C [10]?
Answer: 78.9%

Question: What about the viability, T/C [11] of the same molecule?
Answer: 87.3%

Question: And the viability, T/C [12]?
Answer: 85.3%

Question: What about the viability, T/C (second compound 1 µM, first compound 0.000316 µM) of the same molecule?
Answer: 99%

Question: And the viability, T/C (second compound 1 µM, first compound 0.001 µM)?
Answer: 110%

Question: And the viability, T/C [13]?
Answer: 100%

Question: And the viability, T/C [14]?
Answer: 85.4%

Question: And the viability, T/C [15]?
Answer: 89.6%

Question: And the viability, T/C [16]?
Answer: 86.6%

Question: And the viability, T/C (second compound 3.16 µM, first compound 0.000316 µM)?
Answer: 98%

Question: What about the viability, T/C (second compound 3.16 µM, first compound 0.001 µM) of the same molecule?
Answer: 87.1%

Question: What about the viability, T/C [17] of the same molecule?
Answer: 105%

Question: What about the viability, T/C [18] of the same molecule?
Answer: 100%

Question: What about the viability, T/C [19] of the same molecule?
Answer: 89.8%

Question: What about the viability, T/C [20] of the same molecule?
Answer: 95.6%

Question: And the viability, T/C (second compound 10 µM, first compound 0.000316 µM)?
Answer: 78.8%

Question: And the viability, T/C (second compound 10 µM, first compound 0.001 µM)?
Answer: 86.2%

Question: What about the viability, T/C [21] of the same molecule?
Answer: 97.1%

Question: What about the viability, T/C [22] of the same molecule?
Answer: 92.3%

Question: What about the viability, T/C [23] of the same molecule?
Answer: 88.7%

Question: What about the viability, T/C [24] of the same molecule?
Answer: 87.7%
